Laboratory results taken from patent US20090004162A1, “Hecgf-1 Related Polymorphisms and Applications Thereof” (priority 2005, published 2009).

How the values were obtained:
[1] = test system: CTL clone RDR173; test: IFN-γ ELISA: recognition by CTL clone RDR173 of target cells pulsed with long peptide (processing and presentation); type: cell-based, human
Protocol: FIG. 7. Pulsing target cells with the 23-mer peptide leads to efficient processing and presentation LB-ECGF-1H epitope. CD 14+ cells were pulsed with titrated concentrations of the 11- and 23-mer hECGF-1 peptide for 4 h at 37° C. Target cells (3×10^4) were incubated with CTL clone RDR173 (10^4) for 24 h at 37° C. Release of IFN-γ in the supernatant was measured by ELISA.
FIG. 8. The LB-ECGF-1H epitope can be processed and presented by various target cells upon pulsing with the 23-mer peptide. HLA-B7-positive EBV-LCL cells (EBV), peripheral blood lymphocytes (PBL), phytohemagglutinin activated T cells (PHA blasts), CD14^+ cells (CD14) and CD19^+ cells (CD19) were pulsed with titrated concentrations of the 23-mer HECGF-1 peptide for 4 h at 37° C. Target cells (3×10^4) were incubated with CTL clone RDR173 (10^4) for 24 h at 37° C. Release of IFN-γ in the supernatant was measured by ELISA.
The 23-mer peptide […] containing the epitope (depicted in bold) was synthesized. Target cells were pulsed with titrated concentration of the long peptide for 4 hours at 37° C. and tested for recognition by CTL clone RDR173.

[2] = test system: CTL clone RDR173; test: IFN-γ ELISA: recognition of peptide-pulsed donor-derived EBV-LCL cells by CTL clone RDR173; type: cell-based, human; details: peptide pulsed on donor-derived EBV-LCL cells 2 h 37° C., coculture 24 h
Protocol: FIG. 5. CTL clone RDR173 recognizes the minimal epitope RPHAIRRPLAL. (a) Overlapping 9-, 10- and 11-mer peptides (1 μg/ml) were pulsed on donor-derived EBV-LCL cells for 2 h at 37° C. Peptide-pulsed EBV-LCLs were cocultured with CTL clone RDR173 for 24 h. Release of IFN-γ in the supernatant was measured by ELISA. (b) Increasing concentrations of the patient-derived peptide RPHAIRRPLAL (filled symbols) and the donor-derived peptide RPRAIRRPLAL (open symbols) were pulsed on donor-derived EBV-LCL cells for 2 h at 37° C. Peptide-pulsed EBV-LCLs were cocultured with CTL clone RDR173 for 24 h. Release of IFN-γ in the supernatant was measured by ELISA.
EBV-LCL cells were seeded at 3×10^4 cells/well together with 5×10^3 T cells in 96-well round bottom plate. For blocking studies, target cells were preincubated with antibodies against HLA class I (w6/32), HLA class II (PdV5.2) or HLA-B/C alleles (B1.23.2) for 30 min at room temperature. After 24 h incubation at 37° C., release of IFN-γ in the supernatant was measured using standard ELISA (Sanguin, Amsterdam, the Netherlands).

Row | Sequence | Recognition by CTL clone RDR173 (IFN-γ release) after pulsing with long peptide ([1]; CD14+ cells pulsed 4 h at 37° C., titrated concentrations, FIG. 7) | Processing and presentation of the epitope by various target cells ([1]; EBV-LCL, PHA blast and CD14+ cells pulsed 4 h at 37° C., FIG. 8) | Recognition by CTL clone RDR173 (IFN-γ release) [2]
1 | RPAGGARTLRPHAIRRPLALRRA [23-mer peptide] | efficient recognition | have the ability to process and present the epitope | –
2 | RPHAIRRPLAL [LB-ECGF-1H] | – | – | the epitope recognized by CTL clone RDR173
3 | RPRAIRPLAL [LB-ECGF-1R, donor-derived peptide variant with Arg instead of His] | – | – | not recognized
